{"source": "patent US20140113001A1", "about": "“ENHANCED ACTIVITY HYDROGEN PEROXIDE DISINFECTANT” (Virox Technologies Inc., priority 2002, published 2014)", "origin": "cited, not measured here", "tested_on": "Staphylococcus aureus", "note": "Where two headings read alike, the source gives them in different places."}
{"smiles": "OO", "note": "[hydrogen peroxide]", "values": [{"measurement": "time required to disinfect surfaces contaminated with staphylococcus aureus", "setting": "0.1% w/w aqueous solution", "result": 60, "unit": "min"}, {"measurement": "time required to disinfect surfaces contaminated with staphylococcus aureus", "setting": "25.8% w/w aqueous solution", "result": 0.333, "unit": "min"}]}
